# Test results as given in US7150969B2 (Rosetta Inpharmatics LLC, priority 2004, dated 2006).
# Columns and labels:
# ACC1 [1] = target: T1, ACC1 (Homo sapiens, UniProt Q13085); assay: 14CO2 fixation ACC activity assay, ACC1; assay type: biochemical; conditions: 37° C., 40 minutes, pH 7.5, 20 mM citrate; read-out: Km of ACC1 against substrate
# T1 construct: to produce a full length ACC1 cDNA clone; V5-His (vector pcDNA5/FRT/V5-His TOPO) (C); made in house; host or cells: Sf9 insect cells (baculovirus, pBacPAK9)
# Procedure: ACC1 clone from Example 2 was digested with AvrII and PmeI restriction enzymes and then subcloned into pBacPAK9 (BD Biosciences, Mountainview, Calif.) transfer vector, which was then digested with XbaI and StuI for generating baculovirus. The viral particles were generated in Sf9 insect cells using the reagents and instructions provided by the BacPAK Baculovirus Expression System (BD Biosciences, Mountainview, Calif.).
# The Sf9 cells were grown in Grace's Insect Cell Culture Medium (Invitrogen, Carlsbad, Calif.) containing 10% fetal bovine serum, 0.1 mg/ml kanamicin, and 0.1% PLURONIC® F-68 (Invitrogen, Carlsbad, Calif.) at 30° C. and 5% CO2. […]
# (§1) The following protein extraction and purification procedures were performed at 4° C. unless noted. […] The remaining proteins were eluted from the column by imidazole at 0–500 mM, and the elution fractions were monitored by spectrophotometry at 280 nm. ACC1, ACC2, and ACC2sv1 protein and activity in each fraction were measured.
# (§2) ACC1, ACC2, and ACC2sv1 activity were measured by a standard ^14CO2 fixation assay that measures the incorporation of [^14C]bicarbonate into [^14C]malonyl-CoA, and separates the product from unused substrate at the end of the reaction through acidification, which serves to both quench the reaction and remove residual radiolabeled substrate as ^14CO2. […]
# ACC2 [2] = target: T2, ACC2 (Homo sapiens, UniProt O00763); assay: 14CO2 fixation ACC activity assay, ACC2; assay type: biochemical; conditions: 37° C., 40 minutes, pH 7.5, 20 mM citrate; read-out: Km of ACC2 against substrate
# T2 construct: V5-His (vector pcDNA5/FRT/V5-His TOPO) (C); made in house; host or cells: mouse mammary carcinoma cell line FM-3A (pEF vector, G418 selection)
# T2 sequence (O00763 whole entry): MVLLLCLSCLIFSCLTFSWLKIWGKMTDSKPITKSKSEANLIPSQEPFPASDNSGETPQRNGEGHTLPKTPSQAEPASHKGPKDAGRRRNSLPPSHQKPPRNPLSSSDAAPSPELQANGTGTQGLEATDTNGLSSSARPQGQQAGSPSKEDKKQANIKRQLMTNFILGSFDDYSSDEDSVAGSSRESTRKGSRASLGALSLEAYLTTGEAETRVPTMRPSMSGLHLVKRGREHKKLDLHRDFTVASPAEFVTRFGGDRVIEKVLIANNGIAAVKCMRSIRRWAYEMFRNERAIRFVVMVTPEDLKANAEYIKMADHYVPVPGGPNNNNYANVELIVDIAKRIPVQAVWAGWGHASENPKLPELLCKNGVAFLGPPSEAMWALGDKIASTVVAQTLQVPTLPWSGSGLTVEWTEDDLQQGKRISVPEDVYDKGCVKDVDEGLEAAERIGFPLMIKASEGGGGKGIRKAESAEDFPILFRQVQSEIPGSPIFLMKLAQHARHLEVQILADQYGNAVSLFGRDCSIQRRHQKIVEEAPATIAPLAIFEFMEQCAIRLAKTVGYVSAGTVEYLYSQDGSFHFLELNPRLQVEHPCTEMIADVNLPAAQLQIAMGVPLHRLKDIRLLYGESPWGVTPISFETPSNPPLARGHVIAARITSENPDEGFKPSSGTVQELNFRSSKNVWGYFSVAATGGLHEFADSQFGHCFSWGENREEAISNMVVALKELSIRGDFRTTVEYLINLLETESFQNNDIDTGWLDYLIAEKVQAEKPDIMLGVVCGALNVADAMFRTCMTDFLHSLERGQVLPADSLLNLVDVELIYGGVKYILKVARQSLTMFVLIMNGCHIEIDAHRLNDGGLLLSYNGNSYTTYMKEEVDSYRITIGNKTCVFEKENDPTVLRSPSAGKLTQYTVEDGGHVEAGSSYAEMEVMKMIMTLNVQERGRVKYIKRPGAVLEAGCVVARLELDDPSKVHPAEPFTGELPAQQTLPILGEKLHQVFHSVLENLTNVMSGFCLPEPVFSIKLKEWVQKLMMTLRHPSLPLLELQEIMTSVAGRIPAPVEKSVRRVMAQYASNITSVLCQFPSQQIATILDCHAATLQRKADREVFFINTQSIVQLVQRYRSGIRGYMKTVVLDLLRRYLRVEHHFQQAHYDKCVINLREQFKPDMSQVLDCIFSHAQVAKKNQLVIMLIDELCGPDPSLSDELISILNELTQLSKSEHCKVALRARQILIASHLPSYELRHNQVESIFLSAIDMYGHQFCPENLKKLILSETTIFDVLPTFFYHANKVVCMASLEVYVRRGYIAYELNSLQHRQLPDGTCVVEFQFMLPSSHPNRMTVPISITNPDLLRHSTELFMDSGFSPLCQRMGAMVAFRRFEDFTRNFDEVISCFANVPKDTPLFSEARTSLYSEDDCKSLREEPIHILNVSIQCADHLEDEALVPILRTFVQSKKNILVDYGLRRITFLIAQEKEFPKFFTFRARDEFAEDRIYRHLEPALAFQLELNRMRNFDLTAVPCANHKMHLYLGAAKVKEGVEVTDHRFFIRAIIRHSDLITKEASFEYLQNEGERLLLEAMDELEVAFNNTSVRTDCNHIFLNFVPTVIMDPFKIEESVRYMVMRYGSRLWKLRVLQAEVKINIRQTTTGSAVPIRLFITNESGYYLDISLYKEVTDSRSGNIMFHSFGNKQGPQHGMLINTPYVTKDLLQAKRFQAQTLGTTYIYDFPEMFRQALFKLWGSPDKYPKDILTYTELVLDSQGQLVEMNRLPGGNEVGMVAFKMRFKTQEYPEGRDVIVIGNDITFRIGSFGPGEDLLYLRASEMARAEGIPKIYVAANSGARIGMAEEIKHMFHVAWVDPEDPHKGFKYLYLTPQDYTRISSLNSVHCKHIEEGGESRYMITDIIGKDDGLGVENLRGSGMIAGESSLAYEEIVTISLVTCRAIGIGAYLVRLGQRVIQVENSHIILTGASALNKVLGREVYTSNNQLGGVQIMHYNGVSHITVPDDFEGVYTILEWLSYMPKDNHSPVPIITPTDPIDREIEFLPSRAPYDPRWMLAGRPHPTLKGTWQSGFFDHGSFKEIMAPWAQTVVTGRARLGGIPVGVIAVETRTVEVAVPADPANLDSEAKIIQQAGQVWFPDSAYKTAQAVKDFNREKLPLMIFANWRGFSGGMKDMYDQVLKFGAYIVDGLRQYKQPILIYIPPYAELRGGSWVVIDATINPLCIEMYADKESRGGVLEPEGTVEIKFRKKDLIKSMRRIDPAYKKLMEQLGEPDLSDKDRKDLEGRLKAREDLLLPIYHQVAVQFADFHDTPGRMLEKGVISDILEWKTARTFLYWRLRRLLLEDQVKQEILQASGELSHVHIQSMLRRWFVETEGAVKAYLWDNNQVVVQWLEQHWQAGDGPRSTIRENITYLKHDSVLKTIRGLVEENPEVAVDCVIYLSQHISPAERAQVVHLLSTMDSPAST
# Source text: (§3) ACC2 and ACC2sv1 clones from cloning Method 2 of Example 2 were digested with AvrII and PmeI restriction enzymes and then subcloned into pEF cDNA expression vector (Invitrogen, Carlsbad, Calif.) which was digested by SpeI and EcoRV. The ACC2 and ACC2sv1 expression vectors were introduced into a mouse mammary carcinoma cell line FM-3A (RIKEN cell bank, #RCB0086) using the Lipofectaimine 2000 (Invitrogen, Carlsbad, Calif.) or Effectene Transfection Reagent (Qiagen, Hilden, Germany), according to manufacturer's instructions. […] ACC2 and ACC2sv1 protein levels were measured by Western blot analysis using HRP-conjugated streptavidin (Invitrogen, Carlsbad, Calif.). […]
# as §1, §2
# ACC2sv1 = target: T3, ACC2sv1 (Homo sapiens, UniProt O00763, V2141I); assay: 14CO2 fixation ACC activity assay, ACC2sv1; assay type: biochemical; conditions: 37° C., 40 minutes, pH 7.5, 20 mM citrate; read-out: Km of ACC2sv1 against substrate
# T3 construct: to yield a full-length ACC2sv1 clone; made in house; host or cells: mouse mammary carcinoma cell line FM-3A (pEF vector, G418 selection)
# T3 sequence (O00763 1-2256 isoform O00763-3 V1939I): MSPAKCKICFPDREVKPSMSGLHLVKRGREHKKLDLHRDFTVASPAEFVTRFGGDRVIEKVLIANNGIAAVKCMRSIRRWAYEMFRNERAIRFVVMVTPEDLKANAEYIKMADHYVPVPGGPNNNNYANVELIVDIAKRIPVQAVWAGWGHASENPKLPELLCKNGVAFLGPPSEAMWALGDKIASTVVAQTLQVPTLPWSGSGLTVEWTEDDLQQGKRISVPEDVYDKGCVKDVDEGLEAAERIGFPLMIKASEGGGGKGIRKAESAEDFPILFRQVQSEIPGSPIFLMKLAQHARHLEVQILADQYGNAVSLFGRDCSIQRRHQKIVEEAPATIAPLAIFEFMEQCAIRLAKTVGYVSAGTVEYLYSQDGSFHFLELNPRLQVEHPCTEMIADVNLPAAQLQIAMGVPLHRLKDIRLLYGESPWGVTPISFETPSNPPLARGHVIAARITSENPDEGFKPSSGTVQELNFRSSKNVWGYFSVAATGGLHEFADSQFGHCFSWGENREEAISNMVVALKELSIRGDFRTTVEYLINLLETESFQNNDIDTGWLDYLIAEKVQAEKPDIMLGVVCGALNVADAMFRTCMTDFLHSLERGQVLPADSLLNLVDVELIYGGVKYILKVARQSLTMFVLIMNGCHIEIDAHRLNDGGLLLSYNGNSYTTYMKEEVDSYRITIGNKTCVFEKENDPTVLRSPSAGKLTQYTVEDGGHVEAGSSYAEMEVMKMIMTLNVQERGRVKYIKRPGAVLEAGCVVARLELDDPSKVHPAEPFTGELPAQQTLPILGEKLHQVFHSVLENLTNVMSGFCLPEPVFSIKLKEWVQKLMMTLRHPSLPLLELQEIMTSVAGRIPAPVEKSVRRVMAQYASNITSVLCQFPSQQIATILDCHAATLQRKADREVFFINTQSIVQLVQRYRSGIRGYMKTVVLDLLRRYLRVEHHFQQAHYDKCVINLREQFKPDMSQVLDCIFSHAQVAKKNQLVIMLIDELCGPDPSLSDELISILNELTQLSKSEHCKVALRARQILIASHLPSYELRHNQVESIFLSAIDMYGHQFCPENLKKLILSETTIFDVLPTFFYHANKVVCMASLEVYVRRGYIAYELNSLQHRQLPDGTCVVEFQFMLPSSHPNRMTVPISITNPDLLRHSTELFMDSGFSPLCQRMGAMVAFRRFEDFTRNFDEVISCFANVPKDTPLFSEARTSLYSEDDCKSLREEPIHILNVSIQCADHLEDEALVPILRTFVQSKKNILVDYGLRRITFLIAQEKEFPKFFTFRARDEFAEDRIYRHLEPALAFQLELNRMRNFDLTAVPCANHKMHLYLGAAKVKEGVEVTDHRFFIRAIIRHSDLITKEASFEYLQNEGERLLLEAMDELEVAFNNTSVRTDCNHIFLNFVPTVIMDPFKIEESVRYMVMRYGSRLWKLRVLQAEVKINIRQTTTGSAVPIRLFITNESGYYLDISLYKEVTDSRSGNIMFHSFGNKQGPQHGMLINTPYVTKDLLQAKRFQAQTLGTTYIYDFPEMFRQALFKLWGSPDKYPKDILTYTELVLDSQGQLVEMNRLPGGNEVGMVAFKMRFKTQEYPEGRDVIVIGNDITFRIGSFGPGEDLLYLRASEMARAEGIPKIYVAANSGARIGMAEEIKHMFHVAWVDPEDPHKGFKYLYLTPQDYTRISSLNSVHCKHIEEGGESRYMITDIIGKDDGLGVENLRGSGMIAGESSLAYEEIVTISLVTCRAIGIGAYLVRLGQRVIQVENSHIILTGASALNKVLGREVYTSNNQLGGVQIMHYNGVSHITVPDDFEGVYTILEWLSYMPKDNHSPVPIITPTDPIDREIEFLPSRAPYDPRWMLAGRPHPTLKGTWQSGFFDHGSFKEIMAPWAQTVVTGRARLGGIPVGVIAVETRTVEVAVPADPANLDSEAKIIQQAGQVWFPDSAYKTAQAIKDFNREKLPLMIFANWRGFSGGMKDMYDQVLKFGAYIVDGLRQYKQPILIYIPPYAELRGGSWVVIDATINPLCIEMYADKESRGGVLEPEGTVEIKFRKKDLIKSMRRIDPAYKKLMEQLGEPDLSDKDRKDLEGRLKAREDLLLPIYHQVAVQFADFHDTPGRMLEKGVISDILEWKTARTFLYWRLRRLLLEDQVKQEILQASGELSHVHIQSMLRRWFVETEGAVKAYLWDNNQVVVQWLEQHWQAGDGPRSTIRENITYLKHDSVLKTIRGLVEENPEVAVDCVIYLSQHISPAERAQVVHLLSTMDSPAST
# Source text: as §3, §1, §2
# [3] = rat model of diabetic dyslipidemia; cited from earlier work
# [4] = system: fatty acid synthesis and fatty acid oxidation; conditions: cited from earlier work
# ACCs from plants = conditions: cited from earlier work
# ACC1 [5] = conditions: cited from earlier work
# ACC2 [6] = conditions: cited from earlier work
# ACC = conditions: ESP 55016 converted to ESP 55016-CoA; cited from earlier work
smiles,measurement,setting,value
Nc1ncnc2c1ncn2[C@@H]1O[C@H](COP(=O)(O)OP(=O)(O)OP(=O)(O)O)[C@@H](O)[C@H]1O [ATP],Km,ACC1 [1],54 µM
same,Km,ACC2 [2],44 µM
same,Km,ACC2sv1,109 µM
CC(C)(CCCCCC(O)CCCCCC(C)(C)C(=O)O)C(=O)O [ESP 55016],Serum lipid levels,[3],favorably alter
same,Fatty acid oxidation,[4],enhanced
same,Fatty acid synthesis,[4],inhibited
CC(Oc1ccc(Oc2ncc(C(F)(F)F)cc2Cl)cc1)C(=O)O (centres unmarked) [haloxyfop],Inhibition of ACCs from plants,ACCs from plants,potent inhibitors
CC(Oc1ccc(Oc2ccc(Cl)cc2Cl)cc1)C(=O)O (centres unmarked) [diclofop],Inhibition of ACCs from plants,ACCs from plants,potent inhibitors
O=C(c1c2ccccc2cc2ccccc12)N1CCC(N2CCC[C@@H](C(=O)N3CCOCC3)C2)CC1 [CP-640186],Inhibition of ACC1,ACC1 [5],inhibit
same,Inhibition of ACC2,ACC2 [6],inhibit
CC(C)(CCCCCC(O)CCCCCC(C)(C)C(=O)SCCNC(=O)CCNC(=O)[C@H](O)C(C)(C)COP(=O)(O)OP(=O)(O)OC[C@H]1O[C@@H](n2cnc3c(N)ncnc32)[C@H](O)[C@@H]1OP(=O)(O)O)C(=O)O (some centres unmarked) [ESP 55016-CoA],Inhibition of ACC activity,ACC,directly inhibits
CCN(CC)C(=O)[C@@H]1CCCN(C2CCN(C(=O)c3c4ccccc4cc4ccccc34)CC2)C1 [CP-610431],Inhibition of ACC1,ACC1 [5],inhibit
same,Inhibition of ACC2,ACC2 [6],inhibit
CCC/C(=N\OCC)C1=C(O)CC(CC(C)SCC)CC1=O (centres unmarked) [sethoxydim],Inhibition of ACCs from plants,ACCs from plants,potent inhibitors
O=C(O)O [HCO3],Km,ACC1 [1],6470 µM
same,Km,ACC2 [2],2890 µM
same,Km,ACC2sv1,6510 µM
